One data set has as its target Heat shock protein HSP90 (Homo sapiens, UniProt P07900+P08238). Description: Binding affinity to human Hsp90 expressed in Escherichia coli by SPR assay.
A short description of data set [1]: Binding affinity to recombinant Candida albicans Hsp90 NBD expressed in Escherichia coli by SPR assay.
For data set [2], the system named is Rattus norvegicus. Description: In vivo antifungal activity against azole resistant Candida albicans 904 infected in rat assessed as reduction in kidney fungal burden at 10 mg/kg, ip administered for 5 days, qd in presence of fluconazole. Type of data set: functional, organism-based. The following applies: time 5.0 day.
Another data set deals with CYP3A4 (Homo sapiens, UniProt P08684). Description: Inhibition of CYP3A4 in human liver microsome at 10 uM using midazolam as substrate incubated for 10 mins in presence of NADPH cofactor and fluconazole by LC-MS/MS analysis. Type of data set: ADME. Conditions: liver microsomes, probe midazolam.
CYP3A4, sequence (P08684 whole entry): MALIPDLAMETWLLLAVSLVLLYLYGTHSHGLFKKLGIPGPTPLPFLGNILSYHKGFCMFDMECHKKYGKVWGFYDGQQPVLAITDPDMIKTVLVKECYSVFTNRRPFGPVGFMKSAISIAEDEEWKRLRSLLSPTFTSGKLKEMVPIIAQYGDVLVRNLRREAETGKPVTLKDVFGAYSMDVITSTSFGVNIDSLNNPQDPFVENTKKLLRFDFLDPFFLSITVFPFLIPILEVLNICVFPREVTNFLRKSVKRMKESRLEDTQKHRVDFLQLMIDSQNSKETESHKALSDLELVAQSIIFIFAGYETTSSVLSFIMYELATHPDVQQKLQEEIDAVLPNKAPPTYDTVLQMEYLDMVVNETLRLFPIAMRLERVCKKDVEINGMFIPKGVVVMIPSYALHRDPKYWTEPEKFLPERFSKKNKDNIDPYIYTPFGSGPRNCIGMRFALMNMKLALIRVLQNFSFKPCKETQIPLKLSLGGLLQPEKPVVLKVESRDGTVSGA
A short description of data set [3]: Metabolic stability in rat liver microsomes assessed as microsomal intrinsic clearance in presence of NADPH cofactor under shaking condition for 10 mins measured after 5 to 60 mins by LC-MS/MS analysis. Type of data set: ADME, Microsome. The following applies: time 15-70 min.
Data set [4] concerns Rattus norvegicus. Put plainly: In vivo antifungal activity against azole resistant Candida albicans 904 infected in rat assessed as colonization of fungal cells at 10 mg/kg, ip administered for 5 days, qd by PAS and HE staining based microscopy. Type of data set: functional, organism-based. The following applies: time 5.0 day.
Data set [5] in a line: Metabolic stability in rat liver microsomes assessed as half life in presence of NADPH cofactor under shaking condition for 10 mins measured after 5 to 60 mins by LC-MS/MS analysis. The following applies: time 15-70 min. Type of data set: ADME, Microsome.
Data set [6] deals with Candida albicans. Description: Reversal of fluconazole mediated azole resistance Candida albicans 904 assessed as downregulation of CDR2 at 32 ug/ml in presence of fluconazole by RT-PCR. Conditions: dose 32.0 µg/ml. Type of data set: functional, organism-based.
A further data set concerns the target CYP2D6 (Homo sapiens, UniProt P10635). Put plainly: Inhibition of CYPD6 in human liver microsome at 10 uM using dextromethorphan as substrate incubated for 10 mins in presence of NADPH cofactor and fluconazole by LC-MS/MS analysis. Conditions: liver microsomes, probe dextromethorphan. Type of data set: ADME.
A short description of data set [7]: AUC (0 to infinity) in Sprague-Dawley rat at 10 mg/kg, iv measured at upto 24 hrs by LC/MS/MS analysis. Type of data set: ADME, organism-based. Also on record: dose 10 mg/kg, time < 24 hrs, route iv. The following applies: in vivo.
Data set [8] deals with Rattus norvegicus. Put plainly: In vivo antifungal activity against azole resistant Candida albicans 904 infected in rat assessed as aggregation of inflammatory leukocytes at 10 mg/kg, ip administered for 5 days, qd by PAS and HE staining based microscopy. The class given is functional, organism-based. Conditions: time 5.0 day.
For a further data set, the target named is CYP2C9 (Homo sapiens, UniProt P11712). Description: Inhibition of CYP2C9 in human liver microsome at 10 uM using diclofenac as substrate incubated for 10 mins in presence of NADPH cofactor and fluconazole by LC-MS/MS analysis. The class given is ADME. Conditions: liver microsomes, probe diclofenac.
CYP2C9, sequence (P11712 whole entry): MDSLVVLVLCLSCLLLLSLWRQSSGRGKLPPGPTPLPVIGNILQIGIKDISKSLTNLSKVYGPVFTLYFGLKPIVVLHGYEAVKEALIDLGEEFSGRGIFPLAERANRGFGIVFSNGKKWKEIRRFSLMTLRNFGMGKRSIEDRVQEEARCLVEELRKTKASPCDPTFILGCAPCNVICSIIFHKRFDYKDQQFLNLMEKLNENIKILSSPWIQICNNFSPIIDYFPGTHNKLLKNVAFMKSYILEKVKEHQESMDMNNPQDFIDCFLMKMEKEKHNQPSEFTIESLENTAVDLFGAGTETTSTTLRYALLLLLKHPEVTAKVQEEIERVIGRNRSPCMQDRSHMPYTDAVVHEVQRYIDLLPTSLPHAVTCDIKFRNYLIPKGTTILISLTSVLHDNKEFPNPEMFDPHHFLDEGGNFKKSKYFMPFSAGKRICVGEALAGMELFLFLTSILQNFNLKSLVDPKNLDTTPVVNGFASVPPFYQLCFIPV
The target of another data set is CYP2C19 (Homo sapiens, UniProt P33261). Put plainly: Inhibition of CYP2C19 in human liver microsome at 10 uM using S-mephenytoin as substrate incubated for 10 mins in presence of NADPH cofactor and fluconazole by LC-MS/MS analysis. The class given is ADME. The following applies: liver microsomes, probe S-mephenytoin.
CYP2C19, sequence (P33261 whole entry): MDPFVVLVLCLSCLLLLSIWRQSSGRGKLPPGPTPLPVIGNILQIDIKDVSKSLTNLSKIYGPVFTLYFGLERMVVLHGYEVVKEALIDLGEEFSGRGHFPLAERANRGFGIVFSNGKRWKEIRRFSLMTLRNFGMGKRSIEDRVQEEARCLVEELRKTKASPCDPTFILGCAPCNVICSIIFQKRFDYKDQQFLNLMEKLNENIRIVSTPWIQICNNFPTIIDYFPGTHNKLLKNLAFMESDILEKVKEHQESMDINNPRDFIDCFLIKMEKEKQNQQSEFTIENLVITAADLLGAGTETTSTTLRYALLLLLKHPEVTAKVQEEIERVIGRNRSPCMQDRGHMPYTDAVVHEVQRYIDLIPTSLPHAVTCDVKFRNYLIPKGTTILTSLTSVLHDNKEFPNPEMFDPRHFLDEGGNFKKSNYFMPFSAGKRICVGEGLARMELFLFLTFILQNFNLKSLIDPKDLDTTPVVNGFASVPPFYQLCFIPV
Data set [9] can be described thus: Volume of distribution in Sprague-Dawley rat at 10 mg/kg, iv measured upto 24 hrs by LC/MS/MS analysis. The class given is ADME, organism-based. Conditions: in vivo.
Data set [10] concerns Candida albicans. Put plainly: Reversal of fluconazole mediated azole resistance Candida albicans 904 assessed as downregulation of ERG11 at 32 ug/ml in presence of fluconazole by RT-PCR. The class given is functional, organism-based. Conditions: dose 32.0 µg/ml.
Data set [11] in a line: C0 in Sprague-Dawley rat at 10 mg/kg, iv measured upto 24 hrs by LC/MS/MS analysis. The class given is ADME, organism-based. The following applies: in vivo.
The test system of data set [12] is Candida albicans. Put plainly: Reversal of fluconazole mediated azole resistance Candida albicans 904 assessed as downregulation of CDR1 at 32 ug/ml in presence of fluconazole by RT-PCR. The following applies: dose 32.0 µg/ml. Type of data set: functional, organism-based.
Data set [13] can be described thus: Metabolic stability in rat liver microsomes assessed as compound remaining in presence of NADPH cofactor under shaking condition for 10 mins measured after 60 mins by LC-MS/MS analysis. The class given is ADME, Microsome. Conditions: time 70 min, read-out: Stability.

Results on two compounds are retold here after ChEMBL document CHEMBL5154804, “Species-Selective Targeting of Fungal Hsp90: Design, Synthesis, and Evaluation of Novel 4,5-Diarylisoxazole Derivatives for the Combination Treatment of Azole-Resistant Candidiasis” (J Med Chem, 2022).

Calls of active or inactive are those of the source. The calls are words filed in the database; no cut-off is given here. Some results are limits rather than exact numbers.

CYP2D6, sequence (P10635 whole entry): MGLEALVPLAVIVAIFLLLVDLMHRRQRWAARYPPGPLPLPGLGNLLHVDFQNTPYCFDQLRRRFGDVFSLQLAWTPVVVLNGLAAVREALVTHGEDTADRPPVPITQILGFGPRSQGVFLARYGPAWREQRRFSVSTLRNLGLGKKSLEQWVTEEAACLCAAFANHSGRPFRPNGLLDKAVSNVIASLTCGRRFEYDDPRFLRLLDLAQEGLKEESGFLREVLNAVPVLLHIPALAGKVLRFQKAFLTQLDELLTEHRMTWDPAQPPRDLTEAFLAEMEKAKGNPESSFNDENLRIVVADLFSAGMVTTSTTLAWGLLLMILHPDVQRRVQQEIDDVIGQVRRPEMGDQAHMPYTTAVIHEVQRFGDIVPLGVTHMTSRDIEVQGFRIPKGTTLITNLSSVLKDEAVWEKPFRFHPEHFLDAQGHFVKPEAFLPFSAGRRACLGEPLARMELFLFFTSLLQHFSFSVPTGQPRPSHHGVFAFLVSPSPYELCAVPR

Turning to `CNC(=O)c1noc(-c2cc(-c3ccc(C)cc3)c(O)cc2O)c1-c1ccc(CN2CCOCC2)cc1`, the Kd at Heat shock protein HSP90 is greater than 25000 nM; in data set [1], 933 nM.
With `CCNC(=O)c1noc(-c2cc(-c3ccc(C)cc3)c(O)cc2O)c1-c1ccc(CN2CCOCC2)cc1`, the result with Rattus norvegicus [2], in the data set with Rattus norvegicus [4], with Candida albicans [6], with Rattus norvegicus [8], with Candida albicans [10] and in the data set on Candida albicans [12] was Active. For the same compound, the inhibition at 10 min, 10 µM turned out to be 39.3% at CYP3A4, 36.4% at CYP2D6, 56.1% at CYP2C9 and 56.9% at CYP2C19. Also, the CLint in [3] was 45.3 µL/min/mg. Further, the half-life in data set [5] worked out at 30.6 min. In addition, the AUC(0-inf) in data set [7] came to 3030 ng·h/mL. The Vd in data set [9] amounted to 11.2 L/kg. Further, in data set [11], the C0 at 24 h was 4750 ng/mL. Besides, the remaining at 1.167 h in data set [13] amounted to 23.6%.
